Results reported in patent US5095018A, “3-benzyl-1,2,4-triazolo[4,3-α] pyrazines” (Burroughs Wellcome Co., priority 1989, dated 1992).
Like-named read-outs stand apart in the source and are kept apart here.

Experiment: standard maximal electroshock test (MES), anticonvulsant activity
Type: in vivo
Conditions: HCl salt
Protocol: The anticonvulsant activity of certain compounds of the present invention were determined by a standard maximal electroshock test (MES); that described by L. A. Woodbury and V. D. Davenport, Arch. Int. Pharmacodyn, 1952, 92 95.

[1] = ip, intraperitoneal (I.P.), read-out: ED50 I.P.
[2] = oral (P.O.), read-out: ED50 P.O.

Row | SMILES | ED50 [1] [mg/kg] | ED50 [2] [mg/kg]
1 | CNc1nccn2c(Cc3ccccc3F)nnc12 [Example 1, 3-(2-fluorobenzyl)-8-(methylamino)-1,2,4-triazolo[4,3-a]pyrazine] | 4.1 | 8.3
2 | Fc1ccccc1Cc1nnc2c(NC3CC3)nccn12 [Example 11, 8-(cyclopropylamino)-3-(2-fluorobenzyl)-1,2,4-triazolo[4,3-a]pyrazine] | 9.4 | –
3 | Fc1cccc(F)c1Cc1nnc2c(NC3CC3)nccn12 [Example 10, 8-(cyclopropylamino)-3-(2,6-difluorobenzyl)-1,2,4-triazolo[4,3-a]pyrazine] | 7.2 | –
4 | CNc1nccn2c(Cc3cc(F)ccc3F)nnc12 [Example 6, 3-(2,5-difluorobenzyl)-8-(methylamino)-1,2,4-triazolo[4,3-a]pyrazine] | 4 | 10.2
5 | Nc1nccn2c(Cc3ccccc3F)nnc12 [Example 2, 8-amino-3-(2-fluorobenzyl)-1,2,4-triazolo[4,3-a]pyrazine] | 9.4 | 8
6 | Nc1nccn2c(Cc3cc(F)ccc3F)nnc12 [Example 7, 8-amino-3-(2,5-difluorobenzyl)-1,2,4-triazolo[4,3-a]pyrazine] | 7.1 | 20.4
7 | CNc1nccn2c(Cc3ccccc3)nnc12 [Example 3, 3-Benzyl-8-(methylamino)-1,2,4-triazolo[4,3-a]pyrazine] | 6.2 | 15.6
8 | CNc1nccn2c(Cc3cccc(F)c3)nnc12 [Example 4, 3-(3-fluorobenzyl)-8-(methylamino)-1,2,4-triazolo[4,3-a]pyrazine] | 4.1 | 20.4
9 | CNc1nccn2c(Cc3ccc(F)cc3)nnc12 [Example 5, 3-(4-fluorobenzyl)-8-(methylamino)-1,2,4-triazolo[4,3-a]pyrazine] | 25 | –
10 | Nc1nccn2c(Cc3c(F)cccc3F)nnc12 [Example 9, 8-amino-3-(2,6-difluorobenzyl)-1,2,4-triazolo[4,3-a]pyrazine] | 3.1 | 7.1
11 | CNc1nccn2c(Cc3c(F)cccc3F)nnc12 [Example 8, 3-(2,6-difluorobenzyl)-8-(methylamino)-1,2,4-triazolo[4,3-a]pyrazine] | 2 | 3
